# Activity calls are given as the source filed them. The rule behind the calls is not given here. Peptide text beside a SMILES is read from it. * marks the point of attachment. X1 = CN(C)c1ccc2c(-c3ccc(C(=O)*)cc3C(=O)O)c3ccc(=[N+](C)C)cc-3oc2c1
# Key:
# [1] = Drug penetration in mouse NSC-34 cells at 1 uM after 24 hrs by fluorescence confocal microscopy; format: ADME, cell-based; conditions: nsc-34, 24 h
# NSC-34 [2] = assay: Inhibition of interaction of human SOD1 G93A mutant with YFP-tagged MDH1 transfected in mouse NSC-34 cells after 48 hrs by pull-down immunoprecipitation analysis; format: cell-based
# [3] = Protective effect against rotenone-induced toxicity in mouse NSC-34 cells expressing GFP-tagged human SOD1 G93A mutant assessed as increase in survival at 1 uM after 48 hrs by methylene blue assay relative to rotenone-treated cells expressing GFP-tagged wild type human SOD1; format: functional
# [4] = Increase in ATP level in mouse NSC-34 cells expressing human SOD1 G93A mutant at 1 uM after 48 hrs relative to cells expressing wild type human SOD1; format: functional
# [5] = Protective effect against 2 mg/ml glucose-induced toxicity in mouse NSC-34 cells expressing GFP-tagged human SOD1 G93A mutant assessed as increase in survival at 1 uM after 48 hrs by methylene blue assay relative to 2 mg/ml glucose-treated cells expressing GFP-tagged wild type human SOD1; format: functional
# NSC-34 [6] = assay: Inhibition of interaction of CFP-tagged human SOD1 G93A mutant with YFP-tagged MDH1 transfected in mouse NSC-34 cells by FRET assay; format: cell-based; design: scale not given: the % may be the effect or the level left
Compound,Drug uptake [1] [%],inhibition (NSC-34 [2]),Activity [3] [%],Activity [4] [%],Activity [5] [%],Activity (NSC-34 [6])
CC(C)C[C@H](NC(=O)[C@H](CC(N)=O)NC(=O)c1ccc(-c2c3ccc(=[N+](C)C)cc-3oc3cc(N(C)C)ccc23)c(C(=O)O)c1)C(=O)N[C@@H](CO)C(=O)O,100,inactive,–,–,–,–
CC[C@H](C)[C@H](NC(=O)[C@H](Cc1ccccc1)NC(=O)[C@H](CCC(=O)O)NC(=O)CNC(=O)[C@H](CCCCN)NC(=O)[C@H](CC(C)C)NC(=O)[C@H](Cc1c[nH]c2ccccc12)NC(=O)[C@H](CO)NC(=O)c1ccc(-c2c3ccc(=[N+](C)C)cc-3oc3cc(N(C)C)ccc23)c(C(=O)O)c1)C(=O)N[C@H](C(=O)N[C@H](C(=O)N[C@H](C(=O)N[C@@H](CCC(N)=O)C(=O)N[C@@H](CCC(N)=O)C(=O)N[C@@H](CCCNC(=N)N)C(=O)NCC(=O)N[C@@H](C)C(=O)N[C@@H](C)C(=O)N[C@H](C(=O)N[C@H](C(=O)N[C@@H](CCCCN)C(=O)N[C@@H](C)C(=O)N[C@@H](CCCNC(=N)N)C(=O)N[C@@H](CCCCN)C(=O)O)[C@@H](C)CC)C(C)C)C(C)C)[C@@H](C)O)[C@@H](C)O (X1-SWLKGEFITTVQQRGAAVIKARK-OH),100,Active,98,90,97,–
H-GQIAYSLLYSIGNGS-OH,–,–,–,–,–,inactive
H-SWLKGEFITTVQQRGAAVIKARK-OH,–,–,–,–,–,79%

# — ChEMBL document CHEMBL1153521, “A novel decoy that interrupts G93A-superoxide dismutase gain of interaction with malate dehydrogenase improves survival in an amyotrophic lateral sclerosis cell model” (J Med Chem, 2009)
